Experimental data reported in ChEMBL document CHEMBL6087454, “Identification of Novel Organo-Se BTSA-Based Derivatives as Potent, Reversible, and Selective PPARγ Covalent Modulators for Antidiabetic Drug Discovery” (J Med Chem, 2025).
The source made the active and inactive calls. The rule behind the calls is not given here.

Tests used:
[1] = molecular target: T1, Peroxisome proliferator-activated receptor delta (Homo sapiens) (UniProt Q03181); assay: Binding affinity to PPAR-delta (unknown origin) at 0.5 uM in presence of fluormone pan-PPAR green tracer by TR-FRET assay
T1 sequence (whole entry): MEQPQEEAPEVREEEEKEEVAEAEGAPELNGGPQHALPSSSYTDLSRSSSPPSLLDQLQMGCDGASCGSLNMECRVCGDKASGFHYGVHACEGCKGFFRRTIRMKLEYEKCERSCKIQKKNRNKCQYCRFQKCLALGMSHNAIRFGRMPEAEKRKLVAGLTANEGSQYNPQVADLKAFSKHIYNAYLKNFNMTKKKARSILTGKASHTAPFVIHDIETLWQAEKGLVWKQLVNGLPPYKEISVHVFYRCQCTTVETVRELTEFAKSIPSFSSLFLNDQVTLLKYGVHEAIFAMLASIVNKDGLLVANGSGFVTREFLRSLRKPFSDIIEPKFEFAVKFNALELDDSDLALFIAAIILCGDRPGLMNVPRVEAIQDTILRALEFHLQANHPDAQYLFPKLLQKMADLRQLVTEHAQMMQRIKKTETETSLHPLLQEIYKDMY

[2] = system: Mus musculus; assay: Antidiabetic activity in male db/db mouse model assessed as increase in ANGPTL4 protein abundance in white adipose tissue at 2.5 to 10 mg/kg/day, ip administered for 4 weeks by Western blotting analysis; assay type: functional, organism-based; conditions: dose 2.5-10 mg/kg/day

## Cc1ccc(S(=O)(=O)Oc2ccc(S3(=O)=N[Se]c4cc(OS(=O)(=O)c5ccc(C)cc5)ccc43)cc2)cc1 (configuration not stated)
[1]
  Activity: inactive
[2]
  Activity: Active
